Assay results taken from US20090054455A1, “ARIPIPRAZOLE CO-CRYSTALS” (DR. REDDY'S LABORATORIES LTD., priority 2006, published 2009).

Assays:
[1] = cited from earlier work
[2] = Polymorphic stability on storage, checked by XRPD; type: physicochemical; conditions: stored 3 months in self-sealing polyethylene bag, normal atmospheric conditions, room temperature
Experimental: The process of the present invention provides stable co-crystals of aripiprazole with fumaric acid. The term “stable crystalline form” refers to stability of the crystalline form under the standard temperature and humidity conditions of testing of pharmaceutical products, wherein the stability is indicated by preservation of the original polymorphic form.
Aripiprazole was prepared according to the process given in Example 2 and was packaged in a self-sealing polyethylene bag. The material was stored for 3 months under normal atmospheric conditions at room temperature and checked for polymorphic stability.

SMILES	solubility in aqueous media [1]	polymorphic stability (maintenance of the original XRPD pattern) [2]
O=C1CCc2ccc(OCCCCN3CCN(c4cccc(Cl)c4Cl)CC3)cc2N1 [aripiprazole, 7-[4-[4-(2,3-dichlorophenyl)-1-piperazinyl]butoxy]-3,4-dihydrocarbostyril]	practically insoluble	–
O=C(O)C=CC(=O)O.O=C1CCc2ccc(OCCCCN3CCN(c4cccc(Cl)c4Cl)CC3)cc2N1.O=C1CCc2ccc(OCCCCN3CCN(c4cccc(Cl)c4Cl)CC3)cc2N1 [Example 2]	–	retain its polymorphic form
